# Data reported in ChEMBL document CHEMBL4765257, “Synthesis and structure-activity relationship study of pyrrolidine-oxadiazoles as anthelmintics against Haemonchus contortus” (Eur J Med Chem, 2020).
# Tests used:
# Haemonchus contortus [1] = experiment: Anti-helmintic activity against fourth stage of Haemonchus contortus larvae assessed as reduction in development of L4 stage incubated for 72 hrs followed by reincubation in humidified environment for 4 days; assay type: functional, organism-based
# Haemonchus contortus [2] = experiment: Anti-helmintic activity against third-stage Haemonchus contortus larvae assessed as inhibition of xL3 motility measured after 72 hrs; assay type: functional, organism-based
# MCF-10A = experiment: Cytotoxicity against human MCF-10A cells assessed as inhibition of cell viability measured after 48 hrs by DAPI staining based analysis
# [3] = Cytotoxicity against human MCF-10A cells assessed as inhibition of cell viability at 50 uM measured after 48 hrs by DAPI staining based analysis; conditions: read-out: INH
# [4] = Intrinsic clearence in mouse liver microsomes at 0.5 uM measured upto 60 mins in presence of NADPH measured per mg protein; assay type: ADME, Microsome; conditions: read-out: CLH
# [5] = Half life in mouse liver microsomes at 0.5 uM measured upto 60 mins in presence of NADPH; assay type: ADME, Microsome
# [6] = Intrinsic clearence in human liver microsomes at 0.5 uM measured upto 60 mins in presence of NADPH measured per mg protein; assay type: ADME, Microsome; conditions: read-out: CLH
# [7] = Kinetic solubility of the compound in phosphate buffer pH 6.5 incubated for 30 mins by nephelometry; assay type: physicochemical; conditions: read-out: Kinetic_solubility
# [8] = Half life in human liver microsomes at 0.5 uM measured upto 60 mins in presence of NADPH; assay type: ADME, Microsome
# [9] = Kinetic solubility of the compound in 0.01M HCl at pH 2.0 incubated for 30 mins by nephelometry; assay type: physicochemical; conditions: read-out: Kinetic_solubility
# [10] = Haemonchus contortus, 72 h, read-out: IC50
SMILES,IC50 (Haemonchus contortus [1]) [µM],IC50 (Haemonchus contortus [2]; [10]) [µM],IC50 (MCF-10A) [µM],"cytotoxicity at 48 h, 50 µM [3] [%]",further results
COc1ccccc1-c1noc([C@@H]2CCCN2C(=O)Nc2ccc(Cl)cc2)n1,> 100,> 100,,,
O=C(Nc1ccc(C(F)(F)F)cc1)N1CCC[C@H]1c1nc(-c2ccccc2)no1,7,9.5,> 50,33,
O=C(Nc1cccc(F)c1)N1CCC[C@H]1c1nc(-c2ccccc2)no1,> 100,> 100,,,
O=C(Nc1ccc(Cl)cc1)N1CCC[C@H]1c1nc(-c2ccc(O)cc2)no1,> 100,> 100,,,
O=C(Nc1ccc(Cl)cc1)N1CCC[C@H]1c1nc(-c2ccccc2F)no1,> 100,,> 50,30,IC50 (Haemonchus contortus [2]): Active
O=C(Nc1ccc(Cl)cc1)N1CCCC1c1nc(-c2ccccc2)no1 (centres undefined),0.31,3.46,,,
O=C(Nc1ccc(Cl)cc1)N1CCC[C@H]1c1nc(-c2cccc(O)c2)no1,22.4,0.78,> 50,32,
COc1cccc(NC(=O)N2CCC[C@H]2c2nc(-c3ccccc3)no2)c1,> 100,> 100,,,
O=C(Nc1ccc(Cl)cc1)N1CCC[C@H]1c1nc(-c2ccccc2Cl)no1,20,9.2,> 50,40,
O=C(Nc1cccc(Br)c1)N1CCC[C@H]1c1nc(-c2ccccc2)no1,> 100,> 100,,,
Cc1ccc(-c2noc([C@@H]3CCCN3C(=O)Nc3ccc(Cl)cc3)n2)cc1,50,,> 50,47,IC50 (Haemonchus contortus [2]): Active
O=C(Nc1ccc(Cl)cc1)N1CCC[C@H]1c1nc(-c2cccc(Cl)c2)no1,7.6,3,> 50,17,
O=C(Nc1ccccc1O)N1CCC[C@H]1c1nc(-c2ccccc2)no1,> 100,> 100,,,
O=C(Nc1ccc(Cl)cc1)N1CCC[C@H]1c1nc(-c2cccc(F)c2)no1,18,8.1,> 50,22,
N#Cc1ccc(NC(=O)N2CCC[C@H]2c2nc(-c3ccccc3)no2)cc1,> 100,18,> 50,27,
N#Cc1cccc(NC(=O)N2CCC[C@H]2c2nc(-c3ccccc3)no2)c1,> 100,> 100,,,
O=C(Nc1ccc(Cl)cc1)N1CCC[C@H]1c1nc(-c2ccccc2O)no1,> 100,> 100,,,
COc1ccccc1NC(=O)N1CCC[C@H]1c1nc(-c2ccccc2)no1,> 100,> 100,,,
O=C(Nc1cccnc1)N1CCC[C@H]1c1nc(-c2ccccc2)no1,> 100,> 100,,,
O=C(Nc1ccc(F)cc1)N1CCC[C@H]1c1nc(-c2ccccc2)no1,> 100,> 100,,,

SMILES,IC50 (Haemonchus contortus [1]) [µM],IC50 (Haemonchus contortus [2]; [10]) [µM],IC50 (MCF-10A) [µM],"cytotoxicity at 48 h, 50 µM [3] [%]",further results
O=C(Nc1ccccc1Br)N1CCC[C@H]1c1nc(-c2ccccc2)no1,> 100,> 100,,,
Cc1ccc(NC(=O)N2CCC[C@H]2c2nc(-c3ccccc3)no2)cc1,> 100,> 100,,,
O=C(Nc1cccc(Cl)c1)N1CCC[C@H]1c1nc(-c2ccccc2)no1,> 100,> 100,,,
CC(=O)c1ccc(NC(=O)N2CCC[C@H]2c2nc(-c3ccccc3)no2)cc1,> 100,> 100,,,
CC(=O)c1cccc(NC(=O)N2CCC[C@H]2c2nc(-c3ccccc3)no2)c1,> 100,> 100,,,
COc1ccc(-c2noc([C@@H]3CCCN3C(=O)Nc3ccc(Cl)cc3)n2)cc1,> 100,50,> 50,13,
N#Cc1cccc(-c2noc([C@@H]3CCCN3C(=O)Nc3ccc(Cl)cc3)n2)c1,> 100,> 100,> 50,16,
O=C(Nc1ccc(Cl)cc1)N1CCC[C@H]1c1nc(-c2cccc(Br)c2)no1,> 100,1.1,> 50,20,
O=C(Nc1ccc(OC(F)(F)F)cc1)N1CCC[C@H]1c1nc(-c2ccccc2)no1,13,4.2,> 50,18,
O=C(Nc1ccc(Cl)cc1)N1CCC[C@H]1c1nc(-c2ccc(Cl)cc2)no1,20,1.5,> 50,22,
O=C(Nc1ccc(Cl)cc1)N1CCC[C@H]1c1nc(-c2ccccc2Br)no1,22,12,> 50,30,
O=C(Nc1ccccc1I)N1CCC[C@H]1c1nc(-c2ccccc2)no1,> 100,> 100,,,
CC(C)c1ccc(NC(=O)N2CCC[C@H]2c2nc(-c3ccccc3)no2)cc1,> 100,> 100,,,
O=C(Nc1ccc(O)cc1)N1CCC[C@H]1c1nc(-c2ccccc2)no1,> 100,> 100,,,
O=C(Nc1ccccc1)N1CCC[C@H]1c1nc(-c2ccccc2)no1,> 100,> 100,,,
N#Cc1ccc(-c2noc([C@@H]3CCCN3C(=O)Nc3ccc(Cl)cc3)n2)cc1,> 100,> 100,> 50,11,
O=C(Nc1ccc(Cl)cc1)N1CCC[C@H]1c1nc(-c2ccc(Br)cc2)no1,> 100,,> 50,30,IC50 (Haemonchus contortus [2]): Active
O=C(Nc1ccccc1Cl)N1CCC[C@H]1c1nc(-c2ccccc2)no1,> 100,> 100,,,
O=C(Nc1ccc(Br)cc1)N1CCC[C@H]1c1nc(-c2ccccc2)no1,12,1.8,> 50,20,
COc1cccc(-c2noc([C@@H]3CCCN3C(=O)Nc3ccc(Cl)cc3)n2)c1,> 100,> 100,,,

SMILES,IC50 (Haemonchus contortus [1]) [µM],IC50 (Haemonchus contortus [2]; [10]) [µM],IC50 (MCF-10A) [µM],"cytotoxicity at 48 h, 50 µM [3] [%]",further results
O=C(Nc1ccc(Cl)cc1)N1CCC[C@H]1c1nc(-c2ccc(I)cc2)no1,50,,> 50,23,IC50 (Haemonchus contortus [2]): Active
O=C(Nc1ccc(Cl)cc1)N1CCC[C@H]1c1nc(-c2ccc(F)cc2)no1,19,1.3,> 50,22,
CS(=O)(=O)c1ccc(NC(=O)N2CCC[C@H]2c2nc(-c3ccccc3)no2)cc1,> 100,> 100,,,
CN(C)S(=O)(=O)c1ccc(NC(=O)N2CCC[C@H]2c2nc(-c3ccccc3)no2)cc1,> 100,> 100,,,
O=C(Nc1ccc([N+](=O)[O-])cc1)N1CCC[C@H]1c1nc(-c2ccccc2)no1,50,50,> 50,22,
O=C(Nc1ccccc1F)N1CCC[C@H]1c1nc(-c2ccccc2)no1,> 100,> 100,,,
COc1ccc(NC(=O)N2CCC[C@H]2c2nc(-c3ccccc3)no2)cc1,> 100,> 100,,,
O=C(Nc1ccc(I)cc1)N1CCC[C@H]1c1nc(-c2ccccc2)no1,3.2,5.6,> 50,8,
Cc1ccccc1NC(=O)N1CCC[C@H]1c1nc(-c2ccccc2)no1,> 100,> 100,,,
O=C(Nc1ccncc1)N1CCC[C@H]1c1nc(-c2ccccc2)no1,> 100,> 100,,,
C[C@](C#N)(COc1cc(C#N)ccc1C(F)(F)F)NC(=O)c1ccc(SC(F)(F)F)cc1 [MONEPANTEL],0.075,0.16,26.9,99,
Cc1cccc(-c2noc([C@@H]3CCCN3C(=O)Nc3ccc(Cl)cc3)n2)c1,> 100,1.9,> 50,29,
O=C(Nc1cccc(O)c1)N1CCC[C@H]1c1nc(-c2ccccc2)no1,> 100,> 100,,,
CC(=O)c1ccccc1NC(=O)N1CCC[C@H]1c1nc(-c2ccccc2)no1,> 100,> 100,,,
O=C(Nc1ccc(Cl)cc1)N1CCC[C@@H]1c1nc(-c2ccccc2)no1,> 100,> 100,,,
Cc1cccc(NC(=O)N2CCC[C@H]2c2nc(-c3ccccc3)no2)c1,> 100,> 100,,,
Cc1ccccc1-c1noc([C@@H]2CCCN2C(=O)Nc2ccc(Cl)cc2)n1,50,0.78,> 50,36,
N#Cc1ccccc1NC(=O)N1CCC[C@H]1c1nc(-c2ccccc2)no1,> 100,> 100,,,
O=C(Nc1ccc(Cl)cc1)N1CCC[C@H]1c1nc(-c2ccccc2)no1,21,5.3,> 50,7.5,microsomal CLint at 0.5 µM [4]: 89 µL/min/mg; half-life at 0.5 µM [5]: 20 min; microsomal CLint at 0.5 µM [6]: 19 µL/min/mg; solubility kinetic at 0.5 h [7]: 1.6 µg/mL; half-life at 0.5 µM [8]: 93 min; solubility kinetic at 0.5 h [9]: 1.6 µg/mL
